Laboratory results taken from US11220521B2, “Optically-active 2-amino-phosphonoalkane acid, optically-active 2-amino-phosphonoalkane acid salt, and hydrates of these” (priority 2017, dated 2022).
Blank lines part the entries; values can stand above or below the compound they belong to.

How the values were obtained:
[1] = system: normal human epidermal cells; test: Evaluation for glutathione production promoting activity (total glutathione amount, glutathione reductase recycling assay); format: cell-based; conditions: for GSH (pmol/μg-protein) Mean ± S.D.: 24-hour cultivation, n=4; for glutathione production promoting activities compared with Nahlsgen: summary of Tables 5-1 and 5-2
Description: D-2-Amino-8-phosphonooctanoic acid monohydrate obtained in Example 8, which was used as a sample, was evaluated for glutathione production promoting activity by the following method (n=4).
Specifically, normal human epidermal cells were seeded in a 96-well microplate at a density of 2.0×10^4 cells per 96 wells, using a normal human epidermal keratinocyte growth medium HuMedia KG2 (trade name, supplied by Kurabo Industries Ltd.).
After 24 hours from the seeding, the medium was exchanged with a normal human epidermal keratinocyte growth medium HuMedia KB2 (trade name, supplied by Kurabo Industries Ltd.) containing the sample in a predetermined concentration, and the cultivation was continued. As a blank, the cells were cultured by a procedure similar to above, except for not using the sample.
After 24-hour cultivation, the cells were disrupted by ultrasonication using a phosphate buffer containing 100 μM phenylmethylsulfonyl fluoride, and the total glutathione amount was determined by glutathione reductase recycling assay.
Specifically, a suspension of the disrupted cells were mixed with reduced nicotinamide adenine dinucleotide phosphate and glutathione reductase, followed by reaction at 37° C. for 10 minutes.
Next, 0.1 M phosphate buffer (containing 0.5 M EDTA, pH 7.5) containing dissolved 10 mM 5,5′-dithiobis(2-nitrobenzoic acid) was added, and the mixture was incubated for 30 minutes. The absorbance at 450 nm was measured immediately after addition, and after incubation for 30 minutes. The difference in absorbance, which is calculated by subtracting the absorbance immediately after addition from the absorbance after 30-minute incubation, was defined as an index for glutathione synthesis quantity.
The total glutathione amount in the disrupted cell suspension was determined on the basis of a calibration curve plotted using oxidized glutathione. The protein content in the disrupted cell suspension was determined using the Pierce Microplate BCA Protein Assay Kit (Thermo SCIENTIFIC). The glutathione synthesis quantity was evaluated for differences from the untreated specimen (blank) and from the positive object by a significant difference test using Student's t-test. The results of the tests, each of which was performed two times, are given in Tables 4-1 (first test) and 4-2 (second test).
Tests were performed (n=4) to determine glutathione production promoting activity by a procedure similar to above, except for using, as a sample instead of D-2-amino-8-phosphonooctanoic acid monohydrate, D-2-amino-4-phosphonobutanoic acid L-Arg salt obtained in Example 2, or D-2-amino-4-phosphonobutanoic acid D-Arg salt monohydrate obtained in Example 3.
A test as a referential example was also performed by a procedure similar to above, except for using Nahlsgen (generic name: DL-2-amino-4-[(RSp)-(3-carboxymethylphenoxy) (methoxy)phosphoryl]butanoic acid), instead of the sample.

[2] = molecular target: gamma-glutamyl transpeptidase (GGT) (Homo sapiens, UniProt P19440); conditions: known from Patent Literature (PTL) 1; cited from earlier work
gamma-glutamyl transpeptidase (GGT), sequence (P19440 whole entry, species assumed): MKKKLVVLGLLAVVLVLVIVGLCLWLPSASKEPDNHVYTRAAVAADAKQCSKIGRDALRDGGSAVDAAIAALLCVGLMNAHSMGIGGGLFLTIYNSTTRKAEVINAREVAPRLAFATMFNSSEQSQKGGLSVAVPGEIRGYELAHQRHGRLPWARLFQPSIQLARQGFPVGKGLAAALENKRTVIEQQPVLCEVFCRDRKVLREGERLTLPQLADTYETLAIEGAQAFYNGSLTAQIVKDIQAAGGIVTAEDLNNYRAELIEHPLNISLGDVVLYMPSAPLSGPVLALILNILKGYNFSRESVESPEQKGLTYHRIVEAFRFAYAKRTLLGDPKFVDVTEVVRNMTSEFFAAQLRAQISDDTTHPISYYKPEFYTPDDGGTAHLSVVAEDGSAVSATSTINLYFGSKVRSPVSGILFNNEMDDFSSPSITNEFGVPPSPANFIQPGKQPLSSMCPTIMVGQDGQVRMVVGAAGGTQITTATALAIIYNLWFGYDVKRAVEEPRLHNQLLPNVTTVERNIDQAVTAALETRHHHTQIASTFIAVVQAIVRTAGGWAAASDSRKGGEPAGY

[3] = room temperature; amorphous powdery solid obtained through lyophilization; cited from earlier work
[4] = Table 5-1, first test, 10.00 μmol/L
[5] = Table 5-2, second test, 10.00 μmol/L
[6] = Table 5-2, second test, 50.00 μmol/L
[7] = Table 5-1, first test, 2.00 μmol/L
[8] = Table 5-1, first test, 50.00 μmol/L
[9] = Table 5-1, first test, 250.00 μmol/L
[10] = Table 5-2, second test, 2.00 μmol/L
[11] = Table 5-2, second test, 250.00 μmol/L

- melting point: 73 °C
SMILES: N[C@@H](CCCCCCP(=O)(O)O)C(=O)O.O (hydrate or solvate)

SMILES: N[C@H](CCCCCCP(=O)(O)O)C(=O)O.O [D-2-amino-8-phosphonooctanoic acid monohydrate]
- GSH (pmol/μg-protein) Mean ± S.D. ([1]; Table 4-1, first test, 2.00 μmol/L): 59.5 ± 2.0 pmol/μg-protein
- GSH (pmol/μg-protein) Mean ± S.D. ([1]; Table 4-1, first test, 10.00 μmol/L): 60.6 ± 2.3 pmol/μg-protein
- GSH (pmol/μg-protein) Mean ± S.D. ([1]; Table 4-1, first test, 50.00 μmol/L): 59.7 ± 8.5 pmol/μg-protein
- GSH (pmol/μg-protein) Mean ± S.D. ([1]; Table 4-1, first test, 250.00 μmol/L): 61.0 ± 3.0 pmol/μg-protein
- GSH (pmol/μg-protein) Mean ± S.D. ([1]; Table 4-2, second test, 2.00 μmol/L): 35.3 ± 1.7 pmol/μg-protein
- GSH (pmol/μg-protein) Mean ± S.D. ([1]; Table 4-2, second test, 10.00 μmol/L): 34.8 ± 1.9 pmol/μg-protein
- GSH (pmol/μg-protein) Mean ± S.D. ([1]; Table 4-2, second test, 50.00 μmol/L): 34.8 ± 2.6 pmol/μg-protein
- GSH (pmol/μg-protein) Mean ± S.D. ([1]; Table 4-2, second test, 250.00 μmol/L): 33.6 ± 2.3 pmol/μg-protein
- glutathione production promoting activity as compared with the blank ([1]; summary of Tables 4-1 and 4-2, versus untreated specimen): significant glutathione production promoting activity

SMILES: COP(=O)(CCC(N)C(=O)O)Oc1cccc(CC(=O)O)c1 (racemic) [Nahlsgen, DL-2-amino-4-[(RSp)-(3-carboxymethylphenoxy)(methoxy)phosphoryl]butanoic acid, reference compound]
- GSH (pmol/μg-protein) Mean ± S.D. [1, 4]: 44.7 ± 2.7 pmol/μg-protein
- GSH (pmol/μg-protein) Mean ± S.D. [1, 5]: 36.2 ± 3.4 pmol/μg-protein
- GSH (pmol/μg-protein) Mean ± S.D. [1, 6]: 36.5 ± 3.9 pmol/μg-protein
- GGT inhibitor activity [2]: excellent gamma-glutamyl transpeptidase (GGT) inhibitor
- deliquescency / decomposition on storage [3]: deliquescent and is liable to decompose at room temperature

SMILES: N=C(N)NCCC[C@H](N)C(=O)O.N[C@H](CCP(=O)(O)O)C(=O)O [D-2-amino-4-phosphonobutanoic acid L-Arg salt]
- GSH (pmol/μg-protein) Mean ± S.D. [1, 7]: 49.2 ± 7.5 pmol/μg-protein
- GSH (pmol/μg-protein) Mean ± S.D. [1, 4]: 51.0 ± 1.6 pmol/μg-protein
- GSH (pmol/μg-protein) Mean ± S.D. [1, 8]: 43.9 ± 9.3 pmol/μg-protein
- GSH (pmol/μg-protein) Mean ± S.D. [1, 9]: 42.9 ± 9.8 pmol/μg-protein
- GSH (pmol/μg-protein) Mean ± S.D. [1, 10]: 37.6 ± 2.2 pmol/μg-protein
- GSH (pmol/μg-protein) Mean ± S.D. [1, 5]: 35.4 ± 2.1 pmol/μg-protein
- GSH (pmol/μg-protein) Mean ± S.D. [1, 6]: 37.2 ± 3.0 pmol/μg-protein
- GSH (pmol/μg-protein) Mean ± S.D. [1, 11]: 36.3 ± 1.5 pmol/μg-protein
- glutathione production promoting activities compared with Nahlsgen [1]: significant glutathione production promoting activities comparable to or higher than those of Nahlsgen

SMILES: N[C@H](CCCCCCP(=O)(O)O)C(=O)O.O (hydrate or solvate) [D-2-amino-8-phosphonooctanoic acid monohydrate]
- melting point: 75.3 °C

SMILES: N=C(N)NCCC[C@@H](N)C(=O)O.N[C@H](CCP(=O)(O)O)C(=O)O.O [D-2-amino-4-phosphonobutanoic acid D-Arg salt monohydrate]
- GSH (pmol/μg-protein) Mean ± S.D. [1, 7]: 38.6 ± 3.1 pmol/μg-protein
- GSH (pmol/μg-protein) Mean ± S.D. [1, 4]: 46.2 ± 1.8 pmol/μg-protein
- GSH (pmol/μg-protein) Mean ± S.D. [1, 8]: 36.3 ± 4.0 pmol/μg-protein
- GSH (pmol/μg-protein) Mean ± S.D. [1, 9]: 40.9 ± 8.1 pmol/μg-protein
- GSH (pmol/μg-protein) Mean ± S.D. [1, 10]: 35.8 ± 1.1 pmol/μg-protein
- GSH (pmol/μg-protein) Mean ± S.D. [1, 5]: 35.8 ± 1.2 pmol/μg-protein
- GSH (pmol/μg-protein) Mean ± S.D. [1, 6]: 37.3 ± 1.9 pmol/μg-protein
- GSH (pmol/μg-protein) Mean ± S.D. [1, 11]: 37.1 ± 1.7 pmol/μg-protein
- glutathione production promoting activities compared with Nahlsgen [1]: significant glutathione production promoting activities comparable to or higher than those of Nahlsgen
